Data reported in US8771975B2, “Quantitation of GCP activity in biological samples” (The Johns Hopkins University, priority 2011, dated 2014).
Like-named read-outs stand apart in the source and are kept apart here.

Columns and labels:
GCP [1] = experiment: GCP enzyme activity assay with human skin biopsy pellet ([3H]-NAAG cleavage); type: biochemical; settings: 2-PMPA 1 μM added to assay mixture; [3H]-NAAG 70 nM, 37° C.
Procedure: Punch skin biopsies (3 mm) were obtained from the distal thigh of healthy human volunteers after anesthesia with 0.5 cc 2% lidocaine subcutaneous injection. Samples were placed in cold Tris buffer (pH 7.4) and GCP enzymatic activity was carried out within 1 hour of collection. The skin were homogenized, the homogenate was centrifuged and the pellet was used as source of GCP in the enzyme activity assay. Briefly, human skin biopsies were sonicated in Tris buffer (pH 7.4, 40 mM, 0.5 mL) for 1 minute in ice. The mixture was centrifuged for 2 minutes at 16000×g; the supernantant (containing endogenous […]) was removed and the resulting pellet (containing GCP) was reconstituted in 70 μL assay buffer (Tris pH 7.4, 40 mM containing 1 mM CoCl2) and used as source of GCP in the activity assay. Reconstituted pellet was then incubated with [^3H] […] The radioactivity in each vial corresponding to [^3H]-glutamate was determined via a Beckman LS-6000IC scintillation counter. Radioactivity values in dpm were converted to fmoles of glutamate using the relation 1 pCi/2.2 dpm and the specific activity of [^3H]-glutamate (same as that of [^3H]-NAAG: 1 fmole/50 pCi). As a result, if 16711 dpm [^3H]-glutamate were measured after incubating 10 mg tissue for 1 h, the normalized activity would be: 16711 dpm×(1 pCi/2.2 dpm)×(1 fmole/50 pCi)/10 mg tissue=15 fmole/h/mg tissue. […]

GCP [2] = target: T1, GCP (Rattus norvegicus, UniProt P70627); type: in vivo; settings: 1 hour after administration
T1 construct: Reconstituted pellet preparations from rat paw pads were used as source of GCP II; from tissue; host or cells: male Wistar rat paw pad skin (plantar hindpaw), 16000xg pellet; animals dosed i.p. with 2-PMPA
Procedure: A determination of GCP activity was carried out using male Wistar rat paw pads. Skin was collected from the planter hindpaw by 3 mm skin biopsy dissection and sonicated for 2 minutes in ice. The mixture was centrifuged for 2 minutes at 16000×g and the resulting pellet was reconstituted similar to the pellets obtained from the human skin dissections. Reconstituted pellet preparations from rat paw pads were used as source of GCP II and incubated with [^3H] NAAG, as described above for the human skin samples.
In order to determine if GCP activity in skin in vivo could be inhibited by peripheral administration of 2-PMPA, rats were administered vehicle (HEPES saline, pH 7, 50 mM) or 2-PMPA (1, 10 and 100 mg/kg, i.p.) using a dosing volume of 2 mL/kg. There were 10 animals in each group. Animals were sacrificed 1 hour after 2-PMPA or vehicle administration. […]

GCP [3] = experiment: GCP activity in rat sciatic nerve after peripheral (i.p.) administration; type: in vivo; settings: 1 hour after administration
Text: Sciatic nerve is the target tissue for GCP inhibitors in clinical trials for peripheral neuropathy and neuropathic pain. To obtain sciatic nerve samples, 1-2 cm incisions were made to the skin on top of the rat's mid-thigh so that sciatic nerve, gluteus superficialis muscle and biceps femoris muscle were exposed. The three were then separated and 5 mm of sciatic nerve was removed and analyzed as described above for the human skin and rat paw pad samples. GCP activity in sciatic nerve preparations from animals treated with 1, 10 and 100 mg/kg 2-PMPA was reduced to 92±11, 35±6 and 10±4% respectively compared to activity in sciatic nerve isolated from control animals (FIG. 3). Albeit to a different extent, GCP inhibition in sciatic nerve is attained at similar 2-PMPA doses (10 and 100 mg/kg i.p.) as in footpad tissue.

[4] = 2-PMPA level in paw pads by LC-MS/MS; type: in vivo, rat; settings: 100 mg/kg i.p., 1 hour after administration, n=9, LC-MS/MS
Procedure: The presence of 2-PMPA in skin was determined. Animals were given 2-PMPA (100 mg/kg, i.p.), sacrificed 1 hour after compound administration and paw pads isolated for direct determination of 2-PMPA levels by LC-MS/MS. Since 2-PMPA detection by mass spectrometry has low sensitivity due to ion suppression, samples from animals that had received 100 mg/kg 2-PMPA rather than 10 mg/kg were analyzed to increase the probability of detecting 2-PMPA.
Briefly, frozen samples were thawed in a water bath at ambient temperature and subjected to a liquid extraction using MeOH. Samples were placed in brown glass vials containing 500 μL of 100% MeOH. […] The sample was transferred to a 250 μL polypropylene auto sampler vial sealed with a Teflon crimp cap, and a volume of 50 μL was injected onto the HPLC instrument for quantitative analysis using a temperature-controlled auto sampling device operating at 10° C.
Chromatographic analysis was performed using a Waters ACQUITY UPLC (Milford, Mass., USA). […] The column effluent was monitored using an AB SCIEX TRIPLE QUAD 5500 triple-quadrupole mass-spectrometric detector (Applied Biosystems, Foster City, Calif., USA). […] The daughter ions for 2-PMPA (m/z 191.1) and the internal standard (m/z 255.1) were monitored through the third quadrupole (Q3). […]

T1 sequence (P70627 whole entry): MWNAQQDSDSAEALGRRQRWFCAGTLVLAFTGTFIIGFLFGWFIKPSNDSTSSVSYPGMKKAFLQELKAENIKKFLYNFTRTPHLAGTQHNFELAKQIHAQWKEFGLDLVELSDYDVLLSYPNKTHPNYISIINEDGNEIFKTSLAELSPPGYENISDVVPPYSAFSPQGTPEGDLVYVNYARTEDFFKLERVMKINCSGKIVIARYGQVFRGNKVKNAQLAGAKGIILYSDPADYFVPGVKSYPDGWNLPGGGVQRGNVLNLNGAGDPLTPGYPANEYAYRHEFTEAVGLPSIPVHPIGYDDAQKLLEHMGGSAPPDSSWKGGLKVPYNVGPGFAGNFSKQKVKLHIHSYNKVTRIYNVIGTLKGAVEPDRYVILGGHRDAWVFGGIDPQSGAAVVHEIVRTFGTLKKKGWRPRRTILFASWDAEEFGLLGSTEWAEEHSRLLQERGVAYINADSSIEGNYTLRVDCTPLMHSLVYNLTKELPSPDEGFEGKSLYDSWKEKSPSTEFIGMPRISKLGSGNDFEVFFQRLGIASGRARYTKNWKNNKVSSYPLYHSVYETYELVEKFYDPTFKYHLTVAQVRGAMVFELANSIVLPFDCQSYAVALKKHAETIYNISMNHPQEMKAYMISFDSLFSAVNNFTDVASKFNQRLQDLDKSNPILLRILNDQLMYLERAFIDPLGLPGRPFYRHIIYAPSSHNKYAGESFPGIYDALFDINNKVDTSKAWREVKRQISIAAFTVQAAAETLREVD

## O=C(O)CCC(CP(=O)(O)O)C(=O)O (stereo not shown) [2-PMPA]
GCP [1]
  inhibition of GCP activity in human skin pellet preparations: 90%
GCP [2]; 10 mg/kg i.p.
  GCP activity in paw pads compared to control animals: 60±11%
GCP [2]; 100 mg/kg i.p.
  GCP activity in paw pads compared to control animals: 47±11%
GCP [3]; 1 mg/kg i.p.
  GCP activity in sciatic nerve preparations compared to control animals: 92±11%
GCP [3]; 10 mg/kg i.p.
  GCP activity in sciatic nerve preparations compared to control animals: 35±6%
GCP [3]; 100 mg/kg i.p.
  GCP activity in sciatic nerve preparations compared to control animals: 10±4%
[4]
  2-PMPA concentration in paw pads: 38±5 μg/g tissue
